Data from patent US6620828B2, “Thiazole compounds and pharmaceutical compositions for inhibiting protein kinases and methods for their use” (Agouron Pharmaceuticals, Inc., priority 1999, dated 2003).

Tested on: human umbilical vein endothelial cells (HUVEC)
Assay: HUVEC proliferation assay
Format: cell-based
Conditions: for % inhibition @ 150 nM: Table I screening results, crude combinatorial amide library; for inhibition at 0.001 µM / inhibition at 0.01 µM: Homo sapiens, HUVEC, table following Table II (untitled), crude combinatorial library; for inhibition at 0.001 µM: 1 nM; for inhibition at 0.01 µM: 10 nM, read-out: % inhibition @ 10 nM
Outline: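 Readout was MTT dye reduction (A595) after 72 h of stimulation with VEGF at 6 ng/ml final. Compound, in 0.1% DMSO final, was added 1 h before VEGF to HUVEC starved 24 h in 1% FBS. % inhibition was scaled between VEGF-alone and unstimulated wells; IC50 was fitted from triplicate dose curves.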

SMILES | % inhibition @ 150 nM | inhibition at 0.001 µM | inhibition at 0.01 µM
COc1cc(Nc2nc(N)c(-c3nc(-c4cccc(NC(=O)C5CCN(C(C)=O)CC5)c4)cs3)s2)cc(OC)c1OC | 0% | – | –
COc1cc(Nc2nc(N)c(-c3nc(-c4cccc(NC(=O)/C=C/c5cccc6ccccc56)c4)cs3)s2)cc(OC)c1OC | 0% | – | –
COc1cc(Nc2nc(N)c(-c3nc(-c4cccc(NC(=O)C(C5CCCCC5)C5CCCCC5)c4)cs3)s2)cc(OC)c1OC | 0% | – | –
COc1cc(Nc2nc(N)c(-c3nc(-c4cccc(NC(=O)CCc5cccnc5)c4)cs3)s2)cc(OC)c1OC | 0% | – | –
COc1cc(/C=C/C(=O)Nc2cccc(-c3csc(-c4sc(Nc5cc(OC)c(OC)c(OC)c5)nc4N)n3)c2)cc(OC)c1OC | 0% | – | –
COc1ccc(/C=C/C(=O)Nc2cccc(-c3csc(-c4sc(Nc5cc(OC)c(OC)c(OC)c5)nc4N)n3)c2)cc1OC | 0% | – | –
C=CCC(C)C(=O)Nc1cccc(-c2csc(-c3sc(Nc4cc(OC)c(OC)c(OC)c4)nc3N)n2)c1 (stereo not shown) | 0% | – | –
[CH2-][N+](=O)c1cccc(/C=C/C(=O)Nc2cccc(-c3csc(-c4sc(Nc5cc(OC)c(OC)c(OC)c5)nc4N)n3)c2)c1 | 0% | – | –
COc1cc(Nc2nc(N)c(-c3nc(-c4cccc(NC(=O)/C=C/c5cccc(Cl)c5)c4)cs3)s2)cc(OC)c1OC | 0% | – | –
COc1cc(Nc2nc(N)c(-c3nc(-c4cccc(NC(=O)/C=C/c5ccco5)c4)cs3)s2)cc(OC)c1OC | 0% | – | –
COc1cc(Nc2nc(N)c(-c3nc(-c4cccc(NC(=O)/C=C/c5ccoc5)c4)cs3)s2)cc(OC)c1OC | 0% | – | –
COc1cc(Nc2nc(N)c(-c3nc(-c4cccc(NC(=O)/C=C/c5ccccc5F)c4)cs3)s2)cc(OC)c1OC | 0% | – | –
COc1cc(Nc2nc(N)c(-c3nc(-c4cccc(NC(=O)/C=C/c5ccc(F)cc5)c4)cs3)s2)cc(OC)c1OC | 0% | – | –
COc1cc(Nc2nc(N)c(-c3nc(-c4cccc(NC(=O)C(=O)c5c[nH]c6ccccc56)c4)cs3)s2)cc(OC)c1OC | 0% | – | –
COc1ccc(C(=O)Nc2cccc(-c3csc(-c4sc(Nc5cc(OC)c(OC)c(OC)c5)nc4N)n3)c2)cc1Cl | 0% | – | –
COc1cc(Nc2nc(N)c(-c3nc(-c4cc(NC(=O)c5ccccc5)ccc4C)no3)s2)cc(OC)c1OC | – | 25% | 111%
COc1cc(Nc2nc(N)c(-c3nc(-c4cc(NC(=O)c5cc(=O)[nH]c(=O)[nH]5)ccc4C)no3)s2)cc(OC)c1OC | – | -4% | 4%
COc1cc(Nc2nc(N)c(-c3nc(-c4cc(NC(=O)C5CCCO5)ccc4C)no3)s2)cc(OC)c1OC (stereo not shown) | – | 7% | 21%
COc1cc(Nc2nc(N)c(-c3nc(-c4cc(NC(=O)c5ccc(=O)oc5)ccc4C)no3)s2)cc(OC)c1OC | – | 30% | 51%
COc1cc(Nc2nc(N)c(-c3nc(-c4cc(NC(=O)c5cccc6[nH]ccc56)ccc4C)no3)s2)cc(OC)c1OC | – | 13% | 72%
COc1cc(Nc2nc(N)c(-c3nc(-c4cc(NC(=O)C5=C[C@@H](O)[C@@H](O)[C@H](O)C5)ccc4C)no3)s2)cc(OC)c1OC | – | 4% | 6%
COc1cc(Nc2nc(N)c(-c3nc(-c4cc(NC(=O)[C@H]5CC(=O)NC(=O)N5)ccc4C)no3)s2)cc(OC)c1OC | – | 25% | 2%
COc1cc(Nc2nc(N)c(-c3nc(-c4cc(NC(=O)CCCN(C)C)ccc4C)no3)s2)cc(OC)c1OC | – | 5% | 16%
COc1cc(Nc2nc(N)c(-c3nc(-c4cc(NC(=O)[C@H]5CCC(=O)N5)ccc4C)no3)s2)cc(OC)c1OC | – | -4% | 13%
C=CCC(=O)Nc1ccc(C)c(-c2noc(-c3sc(Nc4cc(OC)c(OC)c(OC)c4)nc3N)n2)c1 | – | 35% | 72%
COc1cc(Nc2nc(N)c(-c3nc(-c4cc(NC(=O)C5CCN(C(C)=O)CC5)ccc4C)no3)s2)cc(OC)c1OC | – | -4% | 16%
COc1cc(Nc2nc(N)c(-c3nc(-c4cc(NC(=O)C5CCOC5)ccc4C)no3)s2)cc(OC)c1OC (stereo not shown) | – | 16% | 6%
COc1cccc(/C=C/C(=O)Nc2ccc(C)c(-c3noc(-c4sc(Nc5cc(OC)c(OC)c(OC)c5)nc4N)n3)c2)c1 | – | -5% | 40%
COc1cc(Nc2nc(N)c(-c3nc(-c4cc(NC(=O)C(O)c5ccccc5)ccc4C)no3)s2)cc(OC)c1OC (stereo not shown) | – | -1% | 40%
